Assay results reported in article PMC7463930, “Evidence Supporting an Antimicrobial Origin of Targeting Peptides to Endosymbiotic Organelles” (Cells, 2020).
No end group written: not given here.

Tested on: Bacillus subtilis
Assay: Standard minimum inhibitory concentration broth microdilution assay
Type: cell-based
Description: Standard minimum inhibitory concentration broth microdilution assays in the presence of BSA/acetic acid were performed in triplicate as described in [65] using peptides chemically synthesized to ≥95% purity (Proteogenix). Dilution series are based on net peptide content, calculated by multiplying the dry weight by %N and by purity. %N is a measure of the peptide (rather than salt) fraction in the lyophilized product, while purity, provided by the manufacturer, is the fraction of the peptide with the desired sequence among all supplied peptides.
To determine the AMP-activity of TPs, we performed the symmetrical experiment. Several chemically synthesized TPs, chosen for their variable proximity to Class I HA-RAMPs (Figure S8B), were used to challenge Bacillus subtilis in a standard assay, using magainin II as a positive control (Figure 7). […] A high sensitivity was deemed a useful feature for an antimicrobial assay in this proof-of-principle experiment, since we expected TPs to have a lower activity than bona fide AMPs as they have been selected for targeting and not for impeding microbial growth over the last 1.5 By.
B. subtilis was challenged with serial dilutions of synthetic peptides (See Table S7 for sequences): the Rattus norvegicus peptide hormone cholecystokinin-22, the C. reinhardtii tSP of lumenal 16.5 kDa protein, the HA-RAMP magainin II, Neurospora crassa mTP of ATP synthase F1β subunit and C. reinhardtii cTPs from RBCA and plastocyanin (PCY1) or mTPs from cytochrome c oxidase 12 kDa subunit (COX13) and Serine HydroxylMethyl Transferase 1 (SHMT1). (A) One dilution plate out of three performed replicates is shown to illustrate how the data was obtained. Transparent wells illustrate absence of growth. Red arrows point to the minimal peptide inhibiting concentration. (B) Minimum inhibitory concentrations (MIC) for each of the three replicate plates are reported in a table. TEXT PRINTED IN THE PICTURE: (B) cck-22: MIC (μg/ml) rep 1: >1000; MIC (μg/ml) rep 2: >1000; MIC (μg/ml) rep 3: >1000 | (B) TL16-tSP: MIC (μg/ml) rep 1: >1000; MIC (μg/ml) rep 2: >1000; MIC (μg/ml) rep 3: >1000 | (B) Magainin II: MIC (μg/ml) rep 1: 4; MIC (μg/ml) rep 2: 4; MIC (μg/ml) rep 3: 4 | (B) pF1β-mTP: MIC (μg/ml) rep 1: 8; MIC (μg/ml) rep 2: 4; MIC (μg/ml) rep 3: 8 | (B) RBCA-cTP: MIC (μg/ml) rep 1: 63; MIC (μg/ml) rep 2: 63; MIC (μg/ml) rep 3: 63 | (B) COX13-mTP: MIC (μg/ml) rep 1: 250; MIC (μg/ml) rep 2: 250; MIC (μg/ml) rep 3: 250 | (B) PCY1-cTP: MIC (μg/ml) rep 1: 1000; MIC (μg/ml) rep 2: 1000; MIC (μg/ml) rep 3: 1000 | (B) SHMT1-mTP: MIC (μg/ml) rep 1: 31; MIC (μg/ml) rep 2: 31; MIC (μg/ml) rep 3: 31

MIC (μg/ml) rep 1 (B. subtilis, broth microdilution in the presence of BSA/acetic acid, serial dilutions based on net peptide content, peptides synthesized to ≥95% purity, replicate plate 1 of 3): > 1000 µg/mL | MIC (μg/ml) rep 2 (B. subtilis, broth microdilution in the presence of BSA/acetic acid, serial dilutions based on net peptide content, peptides synthesized to ≥95% purity, replicate plate 2 of 3): > 1000 µg/mL | MIC (μg/ml) rep 3 (B. subtilis, broth microdilution in the presence of BSA/acetic acid, serial dilutions based on net peptide content, peptides synthesized to ≥95% purity, replicate plate 3 of 3): > 1000 µg/mL
Substance: cholecystokinin-22 (NLQGLDPSHRISDRDYMGWMDF; ends and bridges not checked; UniProt P01355 82-103, looked up) [cck-22, Rattus norvegicus small peptide hormone cholecystokinin-22, used as negative control]
inhibited growth (in words) (B. subtilis challenged with chemically synthesized peptides, negative controls): neither
